Consider one cell line from the supplement of paper PMC10307832.

Test in all cases: relative viability (nuclei count vs DMSO), 5 days (fraction); higher = more cells survive
Compound in assay [1]: O=C(CCCCCCNC(=O)c1cnc(N(c2ccccc2)c2ccccc2)nc1)NO [Ricolinostat] + N=C(N)NC(=N)NCCc1ccccc1 [Phenformin] (partner 250 µM)
Put shortly: (§1)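 Lung cancer cell lines in 1536-well plates got either a single drug or a fixed anchor-drug dose together with five library-drug doses (not always all listed) in √10 steps, by pin tool, on the day after seeding. Nuclei were counted after 5 days, and relative viability is the treated-to-vehicle ratio of nuclei counts. Values are medians of duplicate plates.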

Compound in assay [2]: O=C(CCCCCCNC(=O)c1cnc(N(c2ccccc2)c2ccccc2)nc1)NO [Ricolinostat] + CC(=O)c1c(C)c2cnc(Nc3ccc(N4CCNCC4)cn3)nc2n(C2CCCC2)c1=O [Palbociclib] (partner 0.5 µM)
Put shortly: as §1

Compound in assay [3]: C1=CC=C(C(=C1)C2=CC=C(C=C2)C3=CSC4=C3C(=C(C(=O)N4)C#N)O)O + CC(=O)Nc1cccc(-n2c(=O)n(C3CC3)c(=O)c3c(Nc4ccc(I)cc4F)n(C)c(=O)c(C)c32)c1 [Trametinib] (partner 0.02 µM)
Put shortly:
as §1

Compound in assay [4]: O=C(CCCCCCNC(=O)c1cnc(N(c2ccccc2)c2ccccc2)nc1)NO [Ricolinostat] + Nc1nc2[nH]cc(CCc3ccc(C(=O)N[C@@H](CCC(=O)O)C(=O)O)cc3)c2c(=O)[nH]1 [Pemetrexed] (partner 0.2 µM)
A digest of the protocol:
as §1

Compound in assay [5]: CC1=CN2C(=O)C=C(N=C2C(=C1)C(C)NC3=CC=CC=C3)N4CCOCC4 [TGX 221] + CC(=O)Nc1cccc(-n2c(=O)n(C3CC3)c(=O)c3c(Nc4ccc(I)cc4F)n(C)c(=O)c(C)c32)c1 [Trametinib] (partner 0.02 µM)
A digest of the protocol:
as §1

Turning to NCI-H1792, the relative viability in assay [1] (first compound 0.08 µM) is 0.29; in assay [1] (first compound 0.253 µM), 0.233; in assay [1] (first compound 0.8 µM) it was 0.178; in assay [1] (first compound 2.53 µM), 0.245; in assay [2] (first compound 0.253 µM) it was 0.635; in assay [2] (first compound 0.8 µM) it was 0.684. Further, the relative viability was determined as 0.742 in assay [2] (first compound 2.53 µM); 0.536 in assay [3] (first compound 0.253 µM); 0.424 in assay [3] (first compound 0.8 µM); 0.364 in assay [3] (first compound 2.53 µM); 0.165 in assay [3] (first compound 8 µM); 0.92 in assay [4] (first compound 0.253 µM). The relative viability is 0.59 in assay [4] (first compound 0.8 µM); 0.415 in assay [4] (first compound 2.53 µM); 0.436 in assay [5] (first compound 0.08 µM); 0.414 in assay [5] (first compound 0.253 µM); 0.366 in assay [5] (first compound 0.8 µM); 0.277 in assay [5] (first compound 2.53 µM). For the same cell line, in assay [5] (first compound 8 µM), the relative viability came to 0.313.
